{"source": "patent US9539298B2", "about": "“Lissencephaly therapeutic agent” (OSAKA CITY UNIVERSITY, priority 2010, dated 2017)"}
{"biological_target": "T1, μ-calpain (derived from human red blood cells) (Homo sapiens, UniProt P07384)", "T1 construct": "derived from human red blood cells; purchased Cosmo Bio Co., Ltd; host or cells: human red blood cells (tissue-purified)", "T1 sequence (P07384 1-714)": "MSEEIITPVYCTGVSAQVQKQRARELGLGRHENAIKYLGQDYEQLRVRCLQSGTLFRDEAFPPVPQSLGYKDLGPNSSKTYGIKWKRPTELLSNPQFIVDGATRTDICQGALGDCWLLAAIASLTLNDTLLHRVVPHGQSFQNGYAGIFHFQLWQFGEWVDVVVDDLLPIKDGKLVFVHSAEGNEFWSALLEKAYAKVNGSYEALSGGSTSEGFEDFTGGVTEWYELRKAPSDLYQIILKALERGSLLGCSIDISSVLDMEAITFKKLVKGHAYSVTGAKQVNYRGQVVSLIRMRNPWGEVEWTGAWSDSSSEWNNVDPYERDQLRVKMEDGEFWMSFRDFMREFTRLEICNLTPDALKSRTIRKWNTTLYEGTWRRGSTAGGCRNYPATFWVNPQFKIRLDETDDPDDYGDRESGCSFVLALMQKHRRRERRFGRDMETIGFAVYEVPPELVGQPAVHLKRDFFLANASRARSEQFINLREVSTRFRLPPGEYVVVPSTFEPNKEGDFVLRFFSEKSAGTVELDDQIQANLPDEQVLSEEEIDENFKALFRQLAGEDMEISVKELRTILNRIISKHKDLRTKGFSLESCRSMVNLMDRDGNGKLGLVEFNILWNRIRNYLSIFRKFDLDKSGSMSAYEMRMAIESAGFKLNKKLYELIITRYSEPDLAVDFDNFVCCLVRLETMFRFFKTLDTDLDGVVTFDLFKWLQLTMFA", "T1 sequence (P04632 1-268 partner)": "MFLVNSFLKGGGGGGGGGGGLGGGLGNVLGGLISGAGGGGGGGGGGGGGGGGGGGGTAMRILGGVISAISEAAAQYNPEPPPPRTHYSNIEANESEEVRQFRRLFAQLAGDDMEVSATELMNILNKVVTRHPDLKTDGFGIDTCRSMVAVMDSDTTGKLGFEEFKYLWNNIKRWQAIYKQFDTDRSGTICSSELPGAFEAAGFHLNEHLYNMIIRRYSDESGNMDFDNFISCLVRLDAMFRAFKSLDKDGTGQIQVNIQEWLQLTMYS", "test": "Measurement of inhibitory activity against μ-calpain", "format": "biochemical", "details": "casein substrate, 30° C., 60 minutes; read-out: enzyme inhibitory activities (μM) μ-calpain", "description": "The inhibitory activity against μ-calpain and m-calpain was assayed according to a published method (Anal. Biochem. 1993, vol. 208, p. 387-392). More specifically, 200 μL of a reaction solution containing 0.5 mg/mL casein, 50 mM Tris-HCl buffer (pH 7.4), 20 mM dithiothreitol and 1.0 nmol μ-calpain (derived from human red blood cells, Cosmo Bio Co., Ltd.) or m-calpain (derived from porcine kidney, Cosmo Bio Co., Ltd.) was added to individual 2.5 μL portions of DMSO solution containing a varying concentration of a test sample in a 96-well plate. Then, 50 μL of 20 mM aqueous calcium chloride was added thereto, and reaction was performed at 30° C. for 60 minutes. 100 μL of the reaction solution was transferred to another 96-well plate, and purified water (50 μL) and 50% aqueous solution (100 μL) of Protein Assay Dye Reagent (available from Bio-Rad Laboratories, Inc.; catalogue No. 500-600) were added thereto. The reaction mixture was allowed to stand at room temperature for 15 minutes, and its absorbance was measured at 595 nm. The absorbance of a reaction mixture prepared in the same manner as mentioned above, except that a DMSO solution containing no sample was used as a control value; and the absorbance of a reaction mixture prepared in the same manner as mentioned above, except that a 1 mM aqueous EDTA solution (50 μL) was used in place of 20 mM aqueous calcium chloride, was used as a blank value. […] Inhibition rate (%){1−(measured value−blank test value)/(control value−blank test value)}×100\nThe concentrations (IC50) are shown in Table 1 as enzyme (calpain) inhibitory activities (μM).", "units": {"IC50": "µM"}}
{"smiles": "COCCOCCOCCOC(=O)N[C@@H](CC(C)C)C(=O)N[C@@H](Cc1ccccc1)C(=O)C(=O)NC1CC1", "note": "[compound 18, ((1S)-1-((((1S)-1-Benzyl-2,3-dioxo-3-(cyclopropylamino)propyl)amino)carbonyl)-3-methylbutyl)carbamic acid 8-methoxy-3,6-dioxaoctyl ester]", "IC50": 0.19}
{"smiles": "COCCOC(=O)N[C@@H](CC(C)C)C(=O)N[C@@H](Cc1ccccc1)C(=O)C(=O)NC1CC1", "note": "[compound 4, ((1S)-1-((((1S)-1-Benzyl-2,3-dioxo-3-(cyclopropylamino)propyl)amino)carbonyl)-3-methylbutyl)carbamic acid 2-methoxyethyl ester]", "IC50": 0.11}
{"test_system": "not given", "test": "not given", "details": "not given", "units": {"melting point": "°C"}}
{"smiles": "CCCNC(=O)C(=O)[C@H](Cc1ccccc1)NC(=O)[C@H](CC(C)C)NC(=O)OCCOC", "note": "[compound 7, ((1S)-1-((((1S)-1-Benzyl-2,3-dioxo-3-(propylamino)propyl)amino)carbonyl)-3-methylbutyl)carbamic acid 2-methoxyethyl ester]", "melting point": "108.8 to 109.9"}
{"smiles": "COCCOC(=O)N[C@@H](CC(C)C)C(=O)N[C@@H](Cc1ccccc1)C(=O)C(=O)NC1Cc2ccccc2C1", "note": "[compound 11, ((1S)-1-((((1S)-1-Benzyl-2,3-dioxo-3-(2-indanylamino)propyl)amino)carbonyl)-3-methylbutyl)carbamic acid 2-methoxyethyl ester]", "melting point": "141.9 to 143.5"}
{"smiles": "CCNC(=O)C(=O)[C@H](Cc1ccccc1)NC(=O)[C@H](CC(C)C)NC(=O)OCCOC", "note": "[compound 1, ((1S)-1-((((1S)-1-Benzyl-2,3-dioxo-3-(ethylamino)propyl)amino)carbonyl)-3-methylbutyl) carbamic acid 2-methoxyethyl ester]", "melting point": "138 to 138.3"}
{"smiles": "CCNC(=O)C(=O)[C@H](CCc1ccccc1)NC(=O)[C@H](CC(C)C)NC(=O)OCCOC", "note": "[compound 13, ((1S)-1-((((1S)-2,3-Dioxo-3-ethylamino-1-(phenylethyl)propyl)amino)carbonyl)-3-methylbutyl)carbamic acid 2-methoxyethyl ester]", "melting point": "119.1 to 120.4"}
{"smiles": "COCCOCCOC(=O)N[C@@H](CC(C)C)C(=O)N[C@@H](CC(C)C)C(=O)C(=O)NCCOc1ccccc1", "note": "[compound 22, ((1S)-1-((((1S)-2,3-Dioxo-1-(2-methylpropyl)-3-(2-phenoxyethyl)aminopropyl)amino)carbonyl)-3-methylbutyl) carbamic acid 5-methoxy-3-oxapentyl ester]", "melting point": "53.3 to 54.1"}
{"smiles": "CCCCNC(=O)C(=O)[C@H](Cc1ccccc1)NC(=O)[C@H](CC(C)C)NC(=O)OCCOC", "note": "[compound 9, ((1S)-1-((((1S)-1-Benzyl-3-butylamino-2,3-dioxopropyl)amino)carbonyl)-3-methylbutyl)carbamic acid 2-methoxyethyl ester]", "melting point": "94 to 95.2"}
{"smiles": "CC(C)C[C@H](NC(=O)O[C@H]1CCOC1)C(=O)N[C@@H](Cc1ccccc1)C(=O)C(=O)NC1CC1", "note": "[compound 5, ((1S)-1-((((1S)-1-Benzyl-3-(cyclopropylamino)-2,3-dioxopropyl)amino)carbonyl)-3-methylbutyl)carbamic acid (3S)-tetrahydrofuran-3-yl ester]", "melting point": "169.2 to 170.5"}
{"smiles": "CC(C)C[C@H](NC(=O)OC1CCOCC1)C(=O)N[C@@H](Cc1ccccc1)C(=O)C(=O)NC1CC1", "note": "[compound 6, ((1S)-1-((((1S)-1-Benzyl-3-cyclopropylamino-2,3-dioxopropyl)amino)carbonyl)-3-methylbutyl)carbamic acid tetrahydro-4H-pyran-4-yl ester]", "melting point": "137 to 138.2"}
{"smiles": "COCCOC(=O)N[C@@H](CC(C)C)C(=O)N[C@@H](Cc1ccccc1)C(=O)C(=O)NC1CCC1", "note": "[compound 8, ((1S)-1-((((1S)-1-Benzyl-2,3-dioxo-3-(cyclobutylamino)propyl)amino)carbonyl)-3-methylbutyl)carbamic acid 2-methoxyethyl ester]", "melting point": "114.2 to 115.3"}
{"smiles": "COCCOC(=O)N[C@@H](CC(C)C)C(=O)N[C@@H](Cc1ccccc1)C(=O)C(=O)NCC(F)(F)F", "note": "[compound 10, ((1S)-1-((((1S)-1-Benzyl-2,3-dioxo-3-(2,2,2-trifluoroethylamino)propyl)amino)carbonyl)-3-methylbutyl)carbamic acid 2-methoxyethyl ester]", "melting point": "152.5 to 153.9"}
{"smiles": "CCNC(=O)C(=O)[C@H](CCc1ccccc1)NC(=O)[C@H](CC(C)C)NC(=O)O[C@H]1CCOC1", "note": "[compound 14, ((1S)-1-((((1S)-2,3-Dioxo-3-ethylamino-1-(phenylethyl)propyl)amino)carbonyl)-3-methylbutyl)carbamic acid (3S)-tetrahydrofuran-3-yl ester]", "melting point": "111.9 to 114.5"}
{"smiles": "CCNC(=O)C(=O)[C@H](Cc1ccccc1)NC(=O)[C@H](CC(C)C)NC(=O)OC1CCOCC1", "note": "[compound 3, ((1S)-1-((((1S)-1-Benzyl-2,3-dioxo-3-(ethylamino)propyl)amino)carbonyl)-3-methylbutyl)carbamic acid tetrahydro-4H-pyran-4-yl ester]", "melting point": "140 to 141.8"}
{"smiles": "COCCOC(=O)N[C@@H](CC(C)C)C(=O)N[C@@H](Cc1ccccc1)C(=O)C(=O)NC1CC1", "note": "[compound 4, ((1S)-1-((((1S)-1-Benzyl-2,3-dioxo-3-(cyclopropylamino)propyl)amino)carbonyl)-3-methylbutyl)carbamic acid 2-methoxyethyl ester]", "melting point": "112.4 to 113.5"}
{"smiles": "COCCNC(=O)C(=O)[C@H](Cc1ccccc1)NC(=O)[C@H](CC(C)C)NC(=O)OCCOC", "note": "[compound 12, ((1S)-1-((((1S)-1-Benzyl-2,3-dioxo-3-(2-methoxyethylamino)propyl)amino)carbonyl)-3-methylbutyl)carbamic acid 2-methoxyethyl ester]", "melting point": "127 to 127.9"}
{"smiles": "CCNC(=O)C(=O)[C@H](Cc1ccccc1)NC(=O)[C@H](CC(C)C)NC(=O)O[C@H]1CCOC1", "note": "[compound 2, ((1S)-1-((((1S)-1-Benzyl-2,3-dioxo-3-(ethylamino)propyl)amino)carbonyl)-3-methylbutyl)carbamic acid (3S)-tetrahydrofuran-3-yl ester]", "melting point": "158.9 to 160.7"}
{"smiles": "COCCOC(=O)N[C@@H](CC(C)C)C(=O)N[C@@H](CCc1ccccc1)C(=O)C(=O)NC1CC1", "note": "[compound 15, ((1S)-1-((((1S)-2,3-Dioxo-3-cyclopropylamino-1-(phenylethyl)propyl)amino)carbonyl)-3-methylbutyl)carbamic acid 2-methoxyethyl ester]", "melting point": "109.7 to 111.1"}
{"smiles": "COCCOC(=O)N[C@@H](CC(C)C)C(=O)N[C@@H](CC(C)C)C(=O)C(=O)NCCOc1ccccc1", "note": "[compound 21, ((1S)-1-((((1S)-2,3-Dioxo-1-(2-methylpropyl)-3-(2-phenoxyethyl)aminopropyl)amino)carbonyl)-3-methylbutyl)carbamic acid 2-methoxyethyl ester]", "melting point": "99.7 to 100.5"}
{"smiles": "CC(C)C[C@H](NC(=O)O[C@H]1CCOC1)C(=O)N[C@@H](CCc1ccccc1)C(=O)C(=O)NC1CC1", "note": "[compound 16]", "melting point": "115.8 to 116.2"}
